Measured values from US20250257034A1, “INDOLE DERIVATIVES AS SEROTONERGIC AGENTS USEFUL FOR THE TREATMENT OF DISORDERS RELATED THERETO” (priority 2023, published 2025).
Where two headings read alike, the source gives them in different places.

Key:
human 5-HT2A receptor = human 5-HT2A receptor (Homo sapiens, UniProt P28223); assay: Human 5-HT2A radioligand binding assay ([3H]-ketanserin); design: expressed in transfected cells; host or cells: HTR2A&Gα15-HEK293 (tetracycline induction)
Method: The objective of this study was to evaluate the binding properties of exemplary compounds of Formula (I) on 5-hydroxytryptamine receptor 2A (5-HT2A).
1. The assay buffer was prepared following Table 13 below.
Adjust pH to 7.4 followed by […] sterile filtration
2. 8 doses of reference and test compounds starting from 10 mM stock solution as required was prepared by 5-fold serial dilutions with 100% (v/v) DMSO.
3. UniFilter-96 GF/B plate was pretreated: • i. 50 μl/well of 0.5% (v/v) PEI was added to UniFilter-96 […] plates. The plates were sealed and incubated at 4° C. for 3 hrs. • ii. After incubation, the plates were washed 3 times with ice-cold wash buffer (50 mM Tris, pH7.4).
4. The assay plate was prepared: • i. Cell membrane was diluted with assay buffer and 330 μl/well was added to 96 round deep well plates to reach a concentration of 20 μg/well. • ii. 8 concentrations of reference or test compounds were prepared and 110 μl/well was added to 96 round deep well plates. • iii. [3H]-ketanserin was diluted with assay buffer to 5 nM (5×final concentration) and 110 μl/well was added to 96 round deep well plates.
5. The plate was centrifuged at 1000 rpm for 30 secs and then agitated at 600 rpm, R.T. for 5 min. […]
7. The incubation was stopped by vacuum filtration onto GF/B filter plates followed by 4 times washing with ice-cold wash buffer (50 mM Tris, pH7.4).
9. The filter plates were sealed and 40 μl/well of scintillation cocktail was added.
10. The plate was read by using a Microbeta^2 microplate counter.
1. For reference and test compounds, the results were expressed as % Inhibition, using the normalization equation: N=100−100×(U-C2)/(C1-C2), where U is the unknown value, C1 is the average of high controls, and C2 is the average of low controls.
2. The IC50 was determined by fitting percentage of inhibition as a function of compound concentrations with Hill equation using XLfit. […]

5-HT2B receptor = 5-HT2B receptor (Homo sapiens, UniProt P41595); assay: Human 5-HT2B radioligand binding assay ([3H]-LSD); design: host or cells: cell membrane, dosed as 1 unit/well
Method: The objective of this study was to evaluate the binding properties of test compounds on 5-HT2B.
1) The assay buffer was prepared following Table 25-below.
2) Eight doses of reference and test compounds starting from 10 mM stock solution as requested by 5-fold serial dilutions with 100% (v/v) DMSO.
3) UniFilter-96 GF/B plate was pretreated: • a. 50 μl/well of 0.5% (v/v) PEI to UniFilter-96 G F/B plates. The plates were sealed and incubated at 4° C. for 3 hrs. • b. After incubation, the plates were washed 3 times with ice-cold wash buffer (50 mM Tris, pH7.4).
4) Assay plate preparation: • a. Cell membrane was diluted with assay buffer and 330 μl/well added to 96 round deep well plates to reach a concentration of 1 unit/well. • b. Eight concentrations of reference or test compounds were prepared and 110 μl/well added to 96 round deep well plates. • c. [3H]-LSD was diluted with assay buffer to 5 nM (5×final concentration) and 110 μl/well was added to 96 round deep well plates.
5) The plate was centrifuged at 1000 rpm for 30 secs and then agitate at 600 rpm, R.T. for 5 min.
6) The plates were sealed and incubated at 37° C. for 90 min.
7) The incubation was stopped by vacuum filtration onto GF/B filter plates followed by 4 times washing with ice-cold wash buffer (50 mM Tris, pH7.4).
9) The filter plates were sealed and 40 μl/well of scintillation cocktail was added.
10) The plate was read using a Microbeta2 microplate counter.
(§1) For reference and test compounds, the results are expressed as % Inhibition, using the normalization equation: N=100-100x(U-C2)/(C1-C2), where U is the unknown value, Cl is the average of high controls, and C2 is the average of low controls. The IC50 is determined by fitting percentage of inhibition as a function of compound concentrations with Hill equation using XLfit.
1) The assay buffer was prepared following Table 54 below.
7) The incubation was stopped by vacuum filtration onto G F/B filter plates followed by 4 times washing with ice-cold wash buffer (50 mM Tris, pH7.4).
as §1, with “N=100−100×(U−C2)/(C1−C2),” for “N=100-100x(U-C2)/(C1-C2),”, “C1” for “Cl”

[1] = [3H]-ketanserin displacement (Table 43), read-out: h5-HT2A, IC50

Sequence of 5-HT2B receptor (P41595 whole entry): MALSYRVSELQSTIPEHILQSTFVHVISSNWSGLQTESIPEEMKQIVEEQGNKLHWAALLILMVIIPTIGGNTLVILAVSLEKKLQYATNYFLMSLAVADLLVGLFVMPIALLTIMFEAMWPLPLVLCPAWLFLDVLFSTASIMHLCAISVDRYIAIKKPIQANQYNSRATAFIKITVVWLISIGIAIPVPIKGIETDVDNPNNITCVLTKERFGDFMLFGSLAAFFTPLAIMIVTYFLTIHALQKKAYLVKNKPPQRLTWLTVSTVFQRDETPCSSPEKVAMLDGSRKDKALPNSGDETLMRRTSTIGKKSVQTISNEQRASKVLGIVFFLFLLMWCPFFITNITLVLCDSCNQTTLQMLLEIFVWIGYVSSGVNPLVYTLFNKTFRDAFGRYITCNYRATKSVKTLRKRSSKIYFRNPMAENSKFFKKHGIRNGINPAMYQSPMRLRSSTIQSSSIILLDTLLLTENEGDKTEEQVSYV
Sequence of human 5-HT2A receptor (P28223 whole entry): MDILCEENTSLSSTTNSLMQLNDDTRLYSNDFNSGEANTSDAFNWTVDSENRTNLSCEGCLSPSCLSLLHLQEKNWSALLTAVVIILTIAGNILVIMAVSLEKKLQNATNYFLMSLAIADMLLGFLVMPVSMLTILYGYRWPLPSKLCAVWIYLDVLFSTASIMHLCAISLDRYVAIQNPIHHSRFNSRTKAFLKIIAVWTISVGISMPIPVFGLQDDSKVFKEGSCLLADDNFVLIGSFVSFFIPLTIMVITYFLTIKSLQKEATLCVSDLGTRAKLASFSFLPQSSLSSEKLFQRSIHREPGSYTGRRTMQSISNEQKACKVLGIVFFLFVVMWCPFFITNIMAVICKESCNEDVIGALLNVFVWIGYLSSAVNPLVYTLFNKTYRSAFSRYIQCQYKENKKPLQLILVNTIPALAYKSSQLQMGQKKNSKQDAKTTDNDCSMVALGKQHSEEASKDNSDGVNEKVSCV

SMILES	IC50 (human 5-HT2A receptor)	IC50 (5-HT2B receptor)	Ki (5-HT2B receptor)	other results
COc1ccc2[nH]cc(CCN3CC[C@@H](OC)C3)c2c1 [(R) I-66, (R)-5-methoxy-3-(2-(3-methoxypyrrolidin-1-yl)ethyl)-1H-indole]	4250 nM	–	–	–
COc1ccc2[nH]cc(CCN3CC[C@@H](OC(F)F)C3)c2c1 [(R) I-67, (R)-3-(2-(3-(Difluoromethoxy)pyrrolidin-1-yl)ethyl)-5-methoxy-1H-indole]	4080 nM	–	–	–
COc1ccc2[nH]cc(CCN3CC[C@H](OC(F)F)C3)c2c1 [(S) I-67, (S)-3-(2-(3-(Difluoromethoxy)pyrrolidin-1-yl)ethyl)-5-methoxy-1H-indole]	4880 nM	–	–	–
[2H]C([2H])([2H])N(CCc1c[nH]c2ccc(SC)cc12)C([2H])([2H])[2H] [Compound I-1, N,N-Bis(methyl-d3)-2-(5-(methylthio)-1H-indol-3-yl)ethan-1-amine]	392 nM	74.5 nM	38.6 nM	–
CCN(CC)CCc1c[nH]c2ccc(SC)cc12 [Compound I-12, N,N-Diethyl-2-(5-(methylthio)-1H-indol-3-yl)ethan-1-amine]	780 nM	451 nM	233 nM	–
CCN(C)CCc1c[nH]c2ccc(SC)cc12 [Compound I-13, N-Ethyl-N-methyl-2-(5-(methylthio)-1H-indol-3-yl)ethan-1-amine]	253 nM	64 nM	33.1 nM	–
CSc1ccc2[nH]cc(CCN(C(C)C)C(C)C)c2c1 [Compound I-17, N-Isopropyl-N-(2-(5-(methylthio)-1H-indol-3-yl)ethyl)propan-2-amine]	1980 nM	221 nM	114 nM	–
CSc1ccc2[nH]cc(CCN(C)C(C)C)c2c1 [Compound I-19, N-Methyl-N-(2-(5-(methylthio)-1H-indol-3-yl)ethyl)propan-2-amine]	936 nM	276 nM	143 nM	–
COc1ccc2[nH]cc(CCN(C)CCOC(F)F)c2c1 [Compound I-71, 2-(Difluoromethoxy)-N-(2-(5-methoxy-1H-indol-3-yl)ethyl)-N-methylethan-1-amine]	–	–	–	IC50 (human 5-HT2A receptor; [1]): 2300 nM; IC50 (5-HT2B receptor; [3H]-LSD displacement (Table 55), read-out: 5-HT2B, IC50): 171 nM; Ki (5-HT2B receptor; [3H]-LSD displacement (Table 55), read-out: 5-HT2B, Ki): 88.6 nM
CN(C)CCc1c[nH]c2ccc(OCCOC(F)F)cc12 [Compound I-128, 2-(5-(2-(Difluoromethoxy)ethoxy)-1H-indol-3-yl)-N,N-dimethylethan-1-amine]	7830 nM	–	–	–
CN(CCOC(F)F)CCc1c[nH]c2ccccc12 [Compound I-130, N-(2-(1H-Indol-3-yl)ethyl)-2-(difluoromethoxy)-N-methylethan-1-amine]	–	–	–	IC50 (human 5-HT2A receptor; [1]): 5680 nM
CN(C)CCc1c[nH]c2ccccc12 [DMT]	–	–	–	IC50 (human 5-HT2A receptor; [3H]-ketanserin displacement (Table 14), read-out: h5-HT2A, IC50): 954 nM; IC50 (human 5-HT2A receptor; [1]): 954 nM
